Measured values taken from patent EP0199190A2, “Separating element for separating solid particles, suspended in a gaseous current, by centrifugal force in a cylindrical whirl chamber” (Anton Piller GmbH & Co. KG, priority 1985, dated 1986).

Legend:
[1] = acute toxicity in the mouse, orally and intravenously; conditions: in vivo
Method: (§1) As already stated, the compounds according to the invention show a marked antiplatelet aggregation activity. Moreover, their toxicity is very low. For example, the acute toxicity of the salt above referred by LM-PT bisulfate, was evaluated in the mouse orally and intravenously. The LD50 were about 400 mg/kg and about 100 mg/kg, respectively. The DPPV (disaggregating power percentage value) was evaluated for LM-PT bisulfate, by the ADP induced aggregation test ex vivo in the rat, orally. For a single dose of 100 mg/kg, the DPPV was 92-96%.

[2] = test system: ADP induced aggregation; test: ADP induced aggregation test ex vivo in the rat, orally; conditions: single dose of 100 mg/kg
Method: as §1

Cn1cnc2c1c(=O)n(CCCCC(=O)CN1CCc3sccc3C1)c(=O)n2C [LM-PT bisulfate, N-[2-Reto-6-(3,7-dimethylxanthine-1-yl)hexyl]-4,5,6,7-tetrahydro-thieno[3,2-c]pyridine]
LD50 ([1]; iv, intravenously): ~100 mg/kg | LD50 ([1]; po, orally): ~400 mg/kg | DPPV (disaggregating power percentage value) [2]: 92-96%
